Where two headings read alike, the source gives them in different places. Non-standard residues stand in square brackets, D forms with d. Residues, ends and D or L forms follow the SMILES beside them. Dmt = Cc1cc(O)cc(C)c1C[C@H](N)C(=O)O; d(β3hA) = C[C@@H](N)CC(=O)O
How the values were obtained:
[1] = biological target: T1, human kappa receptor (Homo sapiens, UniProt P41145); assay: Calcium mobilization assay, CHO kappa cells expressing Gαqi5; assay type: cell-based; settings: inactive = inactive up to 10 µM; for Kappa pEC50 (CL95%): calcium mobilization; for Kappa α± SEM: intrinsic activity, Emax ratio to standard agonist dynorphin A
T1 construct: expressed in transfected cells; host or cells: CHO cells stably co-expressing Gαqi5
T1 sequence (P41145 whole entry): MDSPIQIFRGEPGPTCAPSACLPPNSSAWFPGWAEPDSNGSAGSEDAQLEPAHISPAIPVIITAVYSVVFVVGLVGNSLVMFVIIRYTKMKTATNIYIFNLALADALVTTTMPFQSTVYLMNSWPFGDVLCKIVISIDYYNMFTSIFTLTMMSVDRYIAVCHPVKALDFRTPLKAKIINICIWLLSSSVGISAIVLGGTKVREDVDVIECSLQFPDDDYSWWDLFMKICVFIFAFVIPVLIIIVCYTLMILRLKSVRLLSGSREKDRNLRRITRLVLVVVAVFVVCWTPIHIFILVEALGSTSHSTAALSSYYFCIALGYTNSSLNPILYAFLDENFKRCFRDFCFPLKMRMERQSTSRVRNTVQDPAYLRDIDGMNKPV

[2] = biological target: T2, human mu receptor (Homo sapiens, UniProt P35372); assay: Calcium mobilization assay, CHO mu cells expressing Gαqi5; assay type: cell-based; settings: for mu α±SEM: intrinsic activity, Emax ratio to standard agonist EM-2
T2 construct: expressed in transfected cells; host or cells: CHO cells stably co-expressing Gαqi5
T2 sequence (P35372 whole entry): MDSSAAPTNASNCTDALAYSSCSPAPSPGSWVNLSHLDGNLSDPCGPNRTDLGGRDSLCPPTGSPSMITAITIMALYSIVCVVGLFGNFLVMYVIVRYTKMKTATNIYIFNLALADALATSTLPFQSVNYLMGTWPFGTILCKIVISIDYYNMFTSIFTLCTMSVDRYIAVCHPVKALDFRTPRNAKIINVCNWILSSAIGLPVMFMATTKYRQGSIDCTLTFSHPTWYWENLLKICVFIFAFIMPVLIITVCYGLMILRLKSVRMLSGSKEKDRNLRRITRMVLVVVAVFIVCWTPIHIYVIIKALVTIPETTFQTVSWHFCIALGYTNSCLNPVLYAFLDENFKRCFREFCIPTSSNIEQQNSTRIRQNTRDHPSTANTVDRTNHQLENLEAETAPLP

[3] = biological target: T3, human recombinant mu opioid receptor (Homo sapiens, UniProt P35372); assay: Radioligand binding, [3H]DAMGO displacement, CHO cell membranes
T3 construct: purchased; host or cells: CHO cells (membranes)
T3 sequence (P35372 whole entry): as above

[4] = n-Octanol/water partition coefficient (log P); assay type: physicochemical; settings: n-octanol / 0.05 M HEPES buffer in 0.1 M NaCl, pH 7.4
Experimental: Determination of log P was performed according to the method described by ([Liu et al., 2006]). Peptides were dissolved in 0.05 M HEPES buffer in 0.1 M NaCl, pH 7.4, then an equal volume of n-octanol was added and mixtures were vortexed for 2 min. Samples were centrifuged at 4,000 rpm for 1 min. After separation, aqueous and octanol phases were used to quantify peptide content by RP-HPLC.
Octanol phase was lyophilized and reconstituted in 80% acetonitrile in water containing 0.1% TFA before RP-HPLC. All n-octanol/buffer distribution studies were performed in triplicate.

[5] = Enzymatic degradation in rat brain homogenate; assay type: in vitro ADME; settings: for 100 x k, rate constant of degradation: up to 60 min; for half-life at 0.25 mM: ln2/k, read-out: t1/2, degradation half-life
Experimental: Enzymatic degradation of EM-2 and the analogs was performed measuring their hydrolysis rates in the presence of rat brain homogenate. The homogenate was prepared prior to the experiment. Briefly, rat brains were homogenized in 20 volumes of Tris–HCl (50 mM, pH 7.4) using a Polytron and the obtained aliquots were stored at −80°C. In the experiment, aliquotes of brain homogenate (100 μL, 10 mg protein/mL) were incubated with 100 µL of a peptide (0.5 mM) over 0, 7.5; 15, 22.5; 30, and 60 min at 37°C, in a final volume of 200 µL. After the incubation the degradation reaction was stopped by placing the tube on ice and acidifying the content with 20 µL of HCl (1 M). The aliquots were centrifuged at 20,000 g for 10 min at 4°C. The supernatants were collected and filtered using Millex-GV syringe filters (Millipore). Then the analysis by HPLC on a Vydac C18 column (5 μm, 4.6 × 250 mm), using the solvent system of 0.1% TFA in water (A) and 80% acetonitrile in water containing 0.1% TFA (B) and a linear gradient of 0%–100% B over 25 min, was performed. Three independent experiments for each assay were carried out in duplicate. The rate constants of degradation (k) were obtained by the least square linear regression analysis of logarithmic peak areas [ln (A/AD)], where A—amount of remained peptide, AD—initial amount of peptide versus time. Degradation half-lives (t1/2) were calculated from the rate constants as ln2/k.

[6] = biological target: mu receptor-G protein interaction (Homo sapiens, UniProt P35372); assay: BRET mu-G protein interaction assay (membranes of SH-SY5Y cells, mu-RLuc/Gβ1-RGFP)
Chain of mu receptor-G protein interaction (P62871 whole entry): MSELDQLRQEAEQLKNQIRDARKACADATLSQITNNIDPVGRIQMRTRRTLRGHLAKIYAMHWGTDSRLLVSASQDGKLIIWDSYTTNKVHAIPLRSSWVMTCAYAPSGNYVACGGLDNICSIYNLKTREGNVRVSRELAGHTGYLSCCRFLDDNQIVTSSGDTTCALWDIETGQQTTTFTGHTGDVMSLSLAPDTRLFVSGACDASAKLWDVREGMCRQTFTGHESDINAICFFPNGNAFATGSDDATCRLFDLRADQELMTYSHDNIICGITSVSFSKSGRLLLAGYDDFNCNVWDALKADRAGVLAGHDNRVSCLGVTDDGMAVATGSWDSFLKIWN
Chain of mu receptor-G protein interaction (P35372 whole entry): as the sequence (P35372 whole entry) above
Experimental: (§1) SH-SY5Y cells stably co-expressing the fusoproteins mu-RLuc and Gβ1-RGFP or mu-RLuc and β-arrestin 2-RGFP were grown in DMEM/F12 (1:1) medium supplemented with 10% FBS, 2 mM L-Glutamine, 100 μg/mL hygromycin B, 400 μg/mL G418, 100 units/mL penicillin G, 100 μg/mL streptomycin and 1 μg/mL Fungizone at 37°C in a humidified atmosphere with of 5% CO2.
Total protein in membrane preparations was determined by colorimetric method with the Quantum Protein-BCA kit (EuroClone, Pero (MI), IT) and measured using the multiplate reader Victor Nivo (PerkinElmer, Walthman, MA, United States). White opaque 96 wells microplates (PerkinElmer, Walthman, MA, United States) were used to carry out BRET assays. Cell membranes were thawed and resuspended in PBS supplemented with 0.02% BSA before the assay, and an amount of 5 μg of total protein was dispensed in each 96 well. All experiments were carried out at room temperature.
(§2) In agonism experiments, ligands were added and incubated for 5 min before microplate reading. […] BRET ratios were computed as follow: RGFPCPS/RLucCPSligand−RGFPCPS/RLucCPSvehicle
(§3) Concentration-response curves to agonists were fitted to the four-parameter logistic non-linear regression model as follows: Effect=Basal+Emax−Basal/1+10^LogEC50−Logligand×HillSlope

[7] = biological target: T4, delta-opioid receptor (Homo sapiens, UniProt P41143); assay: Calcium mobilization assay, CHO delta cells expressing GαqG66Di5; assay type: cell-based; parameters: expressed in transfected cells; host or cells: CHO cells co-expressing GαqG66Di5; settings: inactive = inactive up to 10 µM; for Delta pEC50 (CL95%): calcium mobilization; for Delta α± SEM: intrinsic activity, Emax ratio to standard agonist DPDPE
T4 sequence (P41143 whole entry): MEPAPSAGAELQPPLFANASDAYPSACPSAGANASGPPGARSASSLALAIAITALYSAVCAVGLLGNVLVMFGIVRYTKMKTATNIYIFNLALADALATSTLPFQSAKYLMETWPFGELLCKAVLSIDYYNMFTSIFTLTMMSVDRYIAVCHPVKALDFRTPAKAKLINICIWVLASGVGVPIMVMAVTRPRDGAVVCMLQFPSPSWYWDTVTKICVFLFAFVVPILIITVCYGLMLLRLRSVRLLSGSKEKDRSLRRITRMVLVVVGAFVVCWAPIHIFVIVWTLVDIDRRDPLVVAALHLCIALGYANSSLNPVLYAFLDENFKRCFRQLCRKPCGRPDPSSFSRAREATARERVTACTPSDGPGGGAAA

[8] = biological target: mu receptor-β-arrestin 2 interaction (Homo sapiens, UniProt P35372); assay: BRET mu-β-arrestin 2 interaction assay (living SH-SY5Y cells, mu-RLuc/β-arrestin 2-RGFP), agonism
Chain of mu receptor-β-arrestin 2 interaction (P35372 whole entry): as the sequence (P35372 whole entry) above
Experimental: as §1
Mu- β-arrestin 2 interaction—Living SH-SY5Y cells expressing mu-RLuc and β-arrestin 2-RGFP were seeded at a cell density of 100,000 cells/well 24 h prior to the test. On the day of the experiment, medium was discarded, and cells were washed with PBS supplemented with 0.5 mM MgCl2, 0.9 mM CaCl2. Cells were subsequently incubated with 2 μM Prolume Purple Coelenterazine (NanoLight Technology, White Mountain, AZ; United States) for 10 min before bioluminescence reading.
as §2, §3

[9] = biological target: T4, delta-opioid receptor; assay: Radioligand binding, [3H]deltorphin-2 displacement, CHO cell membranes; parameters: purchased; host or cells: CHO cells (membranes)
[10] = system: mu receptor; assay: Bias factor, mu-G protein vs mu-β-arrestin 2 (BRET), EM-2 as standard ligand; settings: log10 units, towards G protein
[11] = biological target: T5, human recombinant kappa opioid receptor (Homo sapiens, UniProt P41145); assay: Radioligand binding, [3H]U-69593 displacement, CHO cell membranes
T5 construct: purchased; host or cells: CHO cells (membranes)
T5 sequence (P41145 whole entry): as the sequence (P41145 whole entry) above

[12] = inactive = inactive up to 10 µM
[13] = rat, pH 7.4, rat brain homogenate, 37°C

| Compound | Kappa pEC50 (CL95%) [1] | Kappa α± SEM [1] | mu α±SEM [2, 12] | logD [4] | 100 x k, rate constant of degradation ([5]; 37°C) [per min] | EC50 [6] [nM] | Delta pEC50 (CL95%) [7] | Delta α± SEM [7] | EC50 [8] [nM] | Bias factor (CL95%) [10] | Ki [11] [nM] | EC50 [2] [nM] | Ki [3] [nM] | half-life at 0.25 mM [5, 13] [min] | Ki [9] [nM] | other results |
| --- | --- | --- | --- | --- | --- | --- | --- | --- | --- | --- | --- | --- | --- | --- | --- | --- |
| NC(=O)[C@H](Cc1ccccc1)NC(=O)[C@H](Cc1ccccc1)NC(=O)[C@@H]1CCCN(C(=O)[C@@H](N)Cc2ccc(O)cc2)C1 [analog 4, Tyr-(R)-Nip-Phe-Phe-NH2] | inactive | inactive | 0.99 ± 0.04 | 1.68 | 1.05 ± 0.08 | 11.2 | inactive | inactive | 43.7 | −0.02 (−0.04-0.00) | > 1000 |  |  |  |  | EC50 ([2]; calcium mobilization, inactive = inactive up to 10 µM, read-out: mu pEC50 (CL95%) (converted)): 2.69 nM; Ki ([3]; [3H]DAMGO, n ≥ 3, read-out: Ki ± SEM, mu): 0.85 ± 0.17 nM; half-life at 0.25 mM ([5]; pH 7.4, 37°C): 65.7 ± 2.4 min; β-Arrestin 2 Emax±sem [8]: 1.30 ± 0.03; Ki ([9]; [3H]deltorphin-2, n ≥ 3, read-out: Ki ± SEM, Delta): > 1000 nM |
| Cc1cc(O)cc(C)c1C[C@H](N)C(=O)N[C@H](C)CC(=O)N[C@@H](Cc1ccccc1)C(=O)N[C@@H](Cc1ccccc1)C(N)=O [analog 9, Dmt-(R)-β ^ 3 -Ala-Phe-Phe-NH2] (H-[Dmt][d(β3hA)]FF-NH2; N-terminus assumed) | inactive | inactive | 1.00 ± 0.05 | 2.09 | 1.90 ± 0.04 | 0.724 | inactive | inactive | 2.14 | 0.27 (0.16–0.38) | 890 ± 42 | 0.457 | 0.14 ± 0.07 | 36.3 ± 2.8 | 286 ± 18 |  |
| C[C@H](CC(=O)N[C@@H](Cc1ccccc1)C(=O)N[C@@H](Cc1ccccc1)C(N)=O)NC(=O)[C@@H](N)Cc1ccc(O)cc1 [analog 8, Tyr-(R)-β ^ 3 -Ala-Phe-Phe-NH2] (H-Y[d(β3hA)]FF-NH2; N-terminus assumed) | inactive | inactive | 0.99 ± 0.02 | 1.71 | 0.82 ± 0.04 | 7.41 | inactive | inactive | 77.6 | 0.76 (0.55–0.98) | > 1000 | 1 | 0.44 ± 0.1 | 84.2 ± 3.9 | > 1000 |  |
| NC(=O)[C@H](Cc1ccccc1)NC(=O)C[C@@H](Cc1cccc2ccccc12)NC(=O)[C@@H]1CCCN1C(=O)[C@@H](N)Cc1ccc(O)cc1 [analog 12, Tyr-Pro-(R)-β ^ 3 -1-Nal-Phe-NH2] | inactive | inactive | 0.97 ± 0.02 | 3.01 | 1.28 ± 0.05 | 77.6 | inactive | inactive | 145 | 0.23 (0.06–0.41) | > 1000 | 47.9 |  | 53.9 ± 4.1 | > 1000 |  |
| Cc1cc(O)cc(C)c1C[C@H](N)C(=O)N1CCC[C@H]1C(=O)N[C@@H](Cc1ccccc1)C(=O)N[C@@H](Cc1ccccc1)C(N)=O [analog 1, Dmt-Pro-Phe-Phe-NH2] |  |  | 0.85 ± 0.02 | 2.16 | 3.31 ± 0.12 | 3.09 | inactive | inactive | 11.7 | 0.48 (0.34–0.62) |  | 2.51 | 0.54 ± 0.03 | 20.8 ± 1.2 | 560 ± 41 | fold higher potency than EM-2 ([2]; calcium mobilization, mu): 3 fold |
| Cc1cc(O)cc(C)c1C[C@H](N)C(=O)NC[C@@H](C)C(=O)N[C@@H](Cc1ccccc1)C(=O)N[C@@H](Cc1ccccc1)C(N)=O [analog 7, Dmt-(R)-β ^ 2 -Ala-Phe-Phe-NH2] | inactive | inactive | 0.95 ± 0.03 | 2.33 | 0.51 ± 0.03 | 4.57 | inactive | inactive | 19.1 | 0.67 (0.49–0.84) | 807 ± 46 | 0.692 | 0.31 ± 0.09 | 135 ± 4.3 | 571 ± 55 |  |
| Cc1cc(O)cc(C)c1C[C@H](N)C(=O)N1CCC[C@@H](C(=O)N[C@@H](Cc2ccccc2)C(=O)N[C@@H](Cc2ccccc2)C(N)=O)C1 [analog 5, Dmt-(R)-Nip-Phe-Phe-NH2] | inactive | inactive | 1.00 ± 0.02 | 1.8 | 0.77 ± 0.06 | 1.1 | inactive | inactive | 3.63 | −0.08 (−0.25-0.10) | 567 ± 39 | 0.316 | 0.14 ± 0.06 | 89.6 ± 3 | 589 ± 28 |  |
| Cc1cc(O)cc(C)c1C[C@H](N)C(=O)N1CCC[C@H]1C(=O)N[C@@H](CC(=O)N[C@@H](Cc1ccccc1)C(N)=O)Cc1cccc2ccccc12 [analog 13, Dmt-Pro-(R)-β ^ 3 -1-Nal-Phe-NH2] | inactive | inactive | 0.77 ± 0.02 | 3.16 | 1.69 ± 0.07 | 3.63 | inactive | inactive | 4.37 | 0.27 (0.20–0.34) |  | 3.8 |  | 40.8 ± 4 |  |  |

Reference: PMC9998502, “Functional selectivity of EM-2 analogs at the mu-opioid receptor” (Frontiers in Pharmacology, 2023)
